Assay results: patent EP4005557A1, “METHOD FOR PREPARING NANOSYSTEMS” (Université de Genève, priority 2020, dated 2022)

Columns and labels:
[1] = drug alone; no method described; cited from earlier work
[2] = Contact angle measurement on a solid surface by sessile drop technique (wetting properties); type: physicochemical; conditions: Table 3, voriconazole series
Experimental: The contact angles of voriconazole alone, glucose, voriconazole micelle formulation and voriconazole liposome formulation on a solid surface were measured by sessile drop technique using Lorentzen and […], type 28 optical tensiometer. The purpose of measuring the contact angle is to determine the wetting properties of the formulation. Higher contact angles correspond to poor wetting whereas lower contact angle correspond to good wetting properties. Micelles and liposomes of itraconazole have been prepared according to the method described in example 1. The contact angles of itraconazole alone, glucose, itraconazole micelle formulation and itraconazole liposome formulation on a solid surface were measured by sessile drop technique using Lorentzen and […], type 28 optical tensiometer.

Contact angle [2]: 68.2°
SMILES: C[C@@H](c1ncncc1F)[C@](O)(Cn1cncn1)c1ccc(F)cc1F [Voriconazole]
Log P [1]: 1.75
